US10231958B2, “Methods and compositions for enhancing chemotherapy” (THE BOARD OF REGENTS OF THE UNIVERSITY OF TEXAS SYSTEM, priority 2015, dated 2019)
Starred links: 1 amine or outer side, 2 acyl side, 3 side chain; linkers in the order of their positions; H or OH if unused. Positions of bridges follow the written chain, without caps; N, C: chain ends. Non-standard residues stand in square brackets, D forms with d. Residues, ends and D or L forms follow the SMILES beside them. Chains are numbered I, II in the order given. Actinocin(9to1) = Cc1c2oc3c(C)ccc(C(=O)[*:1])c3nc-2c(C(=O)[*:2])c(N)c1=O; NMeV = CN[C@H](C(=O)O)C(C)C; Sar = CNCC(=O)O

Assays:
[1] = tested on: NRF2, GCLC, ER stress markers; experiment: Western blot of NRF2, GCLC and ER stress markers; assay type: cell-based; conditions: for NRF2 and GCLC protein levels: MEFs, MDA-MB231, MCF-7, 8-12 h; for immunocontent of ER stress markers: cancer cells, 24 h; for effect on MMS-induced NRF2 activation: CHX 1 μg/mL, Actinomycin D 5 μg/mL, NAC 7.5 mM
Method: Western blot. Protein lysates were prepared using RIPA buffer containing 5% sodium deoxycholate, 0.1% SDS, 0.1% Igepal in PBS with a cocktail of protease and phosphatase inhibitors (1 mM PMSF, 1 mM sodium orthovanadate, 1 mM NaF, and 30 μL/mL aprotinin (Sigma-Aldrich, USA)) and clarified by centrifugation. Protein concentration was determined using Bradford Protein Assay Reagent (Biorad, Hercules, Calif.). Equal amounts of protein were resolved using 8-12% SDS polyacrylamide gel, transferred onto nitrocellulose membranes (Hybond-ECL, GE Healthcare Lifesciences, Piscataway, N.J.) and detected using Lumiglo system (Cell Signaling Technology, Calif.) and x-ray films. Primary antibodies included COX-2 (#4842), NRF2 (D1C9), p-JNK1/2 (Thr183/Tyr185, #4671), p-p38 (Thr180/Tyr182, #9216), p-ERK1/2 (Thr202/Tyr204, #9101), BiP/GRP78 (C50B12), IRE1a (14C10), CHOP (L63F7) and PERK (D11A8) from Cell Signaling Technology; p-IRE1a (Ser724; NB100-2323) from Novus Biologicals; GCLC (Ab41463), beta-actin (ab8227) and ATF6 (Ab37149) from Abcam; p-PERK (Thr 981, sc-32577) and ATF3 (C19) were purchased from Santa Cruz. All primary antibodies were used at 1:1000 dilutions and secondary antibodies were 1:3000 in TBS-T with 5% BSA.

IL8, MMP1, MMP3 and PGE2 = experiment: ELISA of inflammatory mediators in culture medium; assay type: cell-based, human; conditions: for production of IL-8, MMP-1 and MMP-3: MDA-MB231 culture medium; for prostaglandin E2 (PGE2) in culture medium and COX-2 protein in lysates: human cancer cells, 12 h
Method: (§1) Quantification of MMP1 and MMP3 content in culture medium was assessed using RayBio-MMP3 and RayBio-MMP1 Elisa Kit (RayBiotech, Inc); IL8 was analyzed by Human IL-8 Elisa kit (Pierce Biotechnology). The levels of prostaglandin E2 (PGE2) were determined using the Prostaglandin E2 EIA Kit Monoclonal (Cayman Chemical Company). Culture media were diluted to fit within the standard curves. For conditioned media (CM) preparation for invasion and in vitro angiogenesis experiments, 12-well plated cells were treated with MMS (or MMS plus inhibitors) for 8 h in the presence of 10% FBS, twice washed with HBSS, and incubated with 700 μL drug/serum-free fresh medium for additional 12 h. Thereafter, the conditioned fresh medium was collected and directly used for migration and invasion experiments in order to reduce freezing associated loss of activity.

[2] = tested on: Intracellular ROS production; experiment: Real-time ROS production (DCF assay); assay type: cell-based; conditions: for ROS production, agent alone: BSO 2.5 mM, CDDP 75 μM, TMZ 1.5 mM, 4HC 75 μM, 12 h
Method: Intracellular ROS production was detected using DCFH-DA probe (Sigma) (Zanotto-Filho et al., 2010, Cancer Lett 288, 192-203). This reagent enters the cells and reacts predominantly with highly oxidizing species of ROS, such as hydroxyl radicals, hydroperoxides, and peroxynitrite, thus producing the fluorophore DCF. Briefly, cells were seeded in black-edge clear bottom 96-well plates. After reaching 70% confluence, medium was changed and cells were incubated with 20 μM DCFH-DA dissolved in medium containing 0.5% FBS. After 1 h pre-incubation to allow DCFH-DA uptake, treatments were added to its respective final concentrations and DCF fluorescence was monitored at 0.5, 1, 3, 8, 12, 16 and 24 h in a fluorescence reader (Ex/Em=485/532 nm). Hydrogen peroxide was used as a positive control and N-acetylcysteine (NAC), GSH-ethyl-ester (GSH-E) and Trolox were used as antioxidant standards. As a control, at the end of 24 h, cell viability was assessed and compared to wells in the absence of DCFH-DA.

[3] = tested on: NFκB-responsive firefly luciferase construct in MDA-MB231 cells; experiment: NFκB gene reporter assay; assay type: cell-based, human; conditions: MDA-MB231, pre-incubation with inhibitor
Method: (§2) Prior to transfection, cells were plated in 96-well plates to 80-90% confluence (100 μL antibiotic free-medium) after 24 h. When used, siRNA were incubated by reverse transfection during cells seeding. […] A mixture of non-inducible firefly luciferase construct and constitutively expressing Renilla luciferase construct (40:1) were used as negative controls. Approximately 24 h post-transfection, the medium was changed and the cells were treated for 12 h with alkylating agents (with/out 6 h pre-treatments). At the end of this period, medium was changed to drug-free fresh medium (to minimize the effect of alkylating toxicity on promoters activity) and cells were kept for an additional 12 h.

human endothelial cells = experiment: In vitro angiogenesis (Angiophase kit, CD31); assay type: cell-based; conditions: direct incubation
Method: as §1
The Angiophase kit (MBL Inc.) was used to assess the angiogenic potential of conditioned media (CM) from breast cancer cells or the direct effect of pharmaceutical inhibitors (free-drug system) on vessel-like structures formation in vitro. With this kit, human endothelial cells are co-cultured in a specially designed medium to form threadlike tubule structures. These gradually join up to form a network of anastomosing tubules, which resemble the capillary bed found in the CAM assay. Kit-provided cryopreserved co-culture of human endothelial cells were plated and kept for 96 h (proliferative phase) without treatments. Afterwards, the cells were maintained in the presence of conditioned medium from alkylating agent treated cells or control medium for a total of 14 days (angiogenic/vasculogenic phase). Medium was changed each 2 days. At the end of treatments, the cells were fixed and immune-stained for CD31 (PECAM-1), following by incubation with secondary antibody conjugate. ELISA was developed using the soluble substrate p-nitrophenyl-phosphate (p-NPP) whose product was colorimetrically read at 405 nm. After ELISA assays, the wells were washed with dH2O and tubule staining was performed by incubating CD31-stained tubules with the substrate BCIP/NBT, which form insoluble precipitates. Tubules were counted and photographed for qualitative monitoring.

[4] = tested on: AP1-responsive firefly luciferase construct in MDA-MB231 cells; experiment: AP-1 gene reporter assay; assay type: cell-based, human; conditions: MDA-MB231, pre-incubation with inhibitor
Method: as §2

[5] = tested on: Kc167 cells, MEFs, and MDA-MB231 breast cancer cells; experiment: Cell viability (CellTiter-Glo); assay type: cell-based, D. melanogaster, mouse, human; conditions: pre-incubation, then MMS; all cell types tested; 48 h
Method: The D. melanogaster embryonic cell line Kc167 was grown in Schneider medium (Invitrogen, Carlsbad, Calif.) supplemented with 10% heat-inactivated (56° C./30 min) fetal bovine serum (FBS), penicillin and streptomycin at 22° C. in a humidified incubator. Primary MEFs were obtained by harvesting 14.5-day C57BL/6J embryos as previously described (Ravi et al., 2009, PLoS Genet 5, e1000527). Briefly, fetal liver and head were removed and the remainder of the embryo was mechanically disaggregated in plating medium. A suspension of single-cells was plated in DMEM (plus 10% FBS, 100 U/mL penicillin and 100 μg/mL streptomycin). MEFs were grown for two passages before freezing aliquots. Aliquots were taken and expanded as needed for each experiment. MDA-MB231, SkBr3 and MCF-7 breast cancer cells lines were obtained from ATCC and grown in DMEM supplemented with 10% inactivated FBS plus antibiotics in a 37° C. humidified incubator at […] atmosphere. Cells were kept and treated in the exponential phase of growing (60-70% confluence). […] DMSO concentrations were kept to a maximum of 0.1% for all experiments. Cell viability was assessed using CellTiter-Glo Luminescent Viability assay (Promega) in 384 or 96-well plates white-border clear-bottom plated cells. For caspase-3/7 activity, Caspase-Glo 3/7 Assay kits were used (Promega). For caspase assays, the cells were seeded in 96-well plates and assayed directly after treatments. Caspase-3/7 inhibitor (Z-DEVD-fmk) was used to ensure assay specificity. LDH release into culture medium was quantified by Cytotox-96 Non-Radioactive assay kit in agreement with instructions (Promega).

[6] = tested on: MDA-MB231 xenograft implants; experiment: MDA-MB231 xenograft study; assay type: in vivo, mouse
Source text: The study was approved by the University of Texas Health Science Center at San Antonio Institutional Animal Care and Use Committee (IACUC) policy as outlined in protocol number 11024. The facility is operated in compliance with the Public Law 89-544 (Animal Welfare Act) and its amendments, Public Health Services Policy on Humane Care and Use of Laboratory Animals (PHS Policy) using the Guide for the Care and Use of Laboratory Animals (Guide) as the basis of operation. Selection of cyclophosphamide and sorafenib doses was based on previously published reports (Sun et al., 2010, J Int Med Res 38, 967-76; Wilhelm et al., 2004 Cancer Res 64, 7099-109). MDA-MB-231 cells were harvested by trypsinization, washed and re-suspended in serum-free medium. Thereafter, cells were mixed with matrigel (1:1), and approximately 5×10^6 cells were subcutaneously injected in the right flank of each mouse. When the average tumor volume reached about 100 mm^3, mice were randomized into groups of 8 animals each, and the following treatment protocol was implemented: Group 1 (control): 100 μL of saline (i.p.); Group 2: sorafenib (1 mg/kg; i.p.) for 9 days; Group 3: cyclophosphamide 0.1 g/kg on days 2, 4, 6 and 8; Group 4: Sorafenib+cyclophosphamide (combination of same above described regimens). All animals were sacrificed 5 days after the end of treatments (15th day of the treatment protocol). Body weight of mice was recorded weekly, and tumor size was measured thrice a week in two dimensions using a digital caliper. The tumor volume was calculated by the formula 0.5236 L1(L2)^2, where L1 is the long axis, and L2 is the short axis of the tumor. At the termination of the study, mice were euthanized; tumors were excised and a part was fixed in 10% phosphate-buffered formalin for H&E, Masson's staining and immunohistochemistry (IHC) analyses.

**Q.** How did the “NRF2 and GCLC protein levels” value [1] turn out when O=P1(N(CCCl)CCCl)NC(OO)CCO1 (centres unmarked) [4-HC, 4-hydroperoxycyclophosphamide] was run?
**A.** The value was “induced NRF2 and GCLC protein”.

**Q.** And the “immunocontent of ER stress markers” value [1]?
**A.** Its value is “increased the immunocontent of ER stress markers”.

**Q.** What about the “production of IL-8, MMP-1 and MMP-3” value (IL8, MMP1, MMP3 and PGE2) of the same compound?
**A.** The value was “increased the production of these molecules”.

**Q.** And the “prostaglandin E2 (PGE2) in culture medium and COX-2 protein in lysates” value (IL8, MMP1, MMP3 and PGE2)?
**A.** Its value is “increased levels of prostaglandin E2 (PGE2)”.

**Q.** And the “ROS production, agent alone” value [2]?
**A.** Its value is “increased ROS”.

**Q.** How did the “effect on MMS-induced activation of NFκB reporter” value [3] turn out when Cc1ccc(S(=O)(=O)/C=C/C#N)cc1 [BAY117082] was run?
**A.** The value was “blocked”.

**Q.** What does the source list for [NH2][Pt]([NH2])([Cl])[Cl] [CDDP, cisplatin]?
**A.** NRF2 and GCLC protein levels [1]: induced NRF2 and GCLC protein; immunocontent of ER stress markers [1]: increased the immunocontent of ER stress markers; production of IL-8, MMP-1 and MMP-3 (IL8, MMP1, MMP3 and PGE2): increased the production of these molecules; prostaglandin E2 (PGE2) in culture medium and COX-2 protein in lysates (IL8, MMP1, MMP3 and PGE2): increased levels of prostaglandin E2 (PGE2); ROS production, agent alone [2]: increased ROS

**Q.** With CCCCC[C@H](O)/C=C/[C@H]1[C@H](O)CC(=O)[C@@H]1C/C=C\CCCC(=O)O [PGE2, prostaglandin E2] as the compound, how does the “vessel-like structure formation, purified factor” value (human endothelial cells) read?
**A.** The value was “angiogenic”.

**Q.** Which “effect on MMS-induced activation of NFκB reporter” value [3] does the source give for C[S+]([O-])c1ccc(-c2nc(-c3ccc(F)cc3)c(-c3ccncc3)[nH]2)cc1 (centres unmarked) [SB203508] here?
**A.** Its value is “only blocked the NFκB reporter”.

**Q.** And the “effect on MMS-induced activation of AP-1 reporter” value [4]?
**A.** The value was “only blocked the NFκB reporter”.

**Q.** How did the “effect on MMS-induced activation of AP-1 reporter” value [4] turn out when O=C1c2ccccc2-c2n[nH]c3cccc1c23 [SP600129] was run?
**A.** Its value is “blocked”.

**Q.** With Cc1c(C)c2c(c(C)c1O)CCC(C)(C(=O)O)O2 (centres unmarked) [Trolox] as the compound, how does the “effect on ROS levels” value ([2]; Trolox 200 μM, NAC 7.5 mM, GSH-E 10 mM) read?
**A.** The value was “reduced ROS below levels of the control”.

**Q.** What about the “effect on MMS toxicity” value [5] of the same compound?
**A.** The value was “had no effect”.

**Q.** Which “effect on MMS-induced NRF2 activation” value [1] does the source give for Cc1c2oc3c(C)ccc(C(=O)N[C@@H]4C(=O)N[C@H](C(C)C)C(=O)N5CCC[C@H]5C(=O)N(C)CC(=O)N(C)[C@@H](C(C)C)C(=O)O[C@@H]4C)c3nc-2c(C(=O)N[C@@H]2C(=O)N[C@H](C(C)C)C(=O)N3CCC[C@H]3C(=O)N(C)CC(=O)N(C)[C@@H](C(C)C)C(=O)O[C@@H]2C)c(N)c1=O [actinomycin D] (I: T[dV]P[Sar][NMeV] / II: T[dV]P[Sar][NMeV]; ester I:1-I:C, II:1-II:C; linker I:N-II:N via Actinocin(9to1)) here?
**A.** Its value is “blocked NRF2 activation”.

**Q.** C[C@@H]1C[C@@H]([C@H](O)CC2CC(=O)NC(=O)C2)C(=O)[C@@H](C)C1 [cycloheximide] was tested. Which “effect on MMS-induced NRF2 activation” value [1] did it give?
**A.** The value was “blocked NRF2 activation”.

**Q.** What does the source list for O=P1(N(CCCl)CCCl)NCCCO1 (centres unmarked) [cyclophosphamide]?
**A.** collagen deposition (wound healing phenotype) ([6]; cyclophosphamide alone): spreading areas of collagen deposition; tumor microvessels (histology, CD31) ([6]; cyclophosphamide alone vs untreated): increased number of niches of microvessels; tumor growth, single agent ([6]; sorafenib 1 mg/kg i.p. 9 days, cyclophosphamide 0.1 g/kg days 2, 4, 6, 8): reduced tumor size

**Q.** For VEGF, which “vessel-like structure formation, purified factor” value (human endothelial cells) is on record?
**A.** Its value is “angiogenic”.
